Reference: patent publication US20140228372A1 (priority 2011, published 2014)

SMILES: Cc1cc(C(F)(F)F)nn1CC(=O)N1CCC(c2csc(NC(=O)Cc3c(F)cccc3Cl)n2)CC1 [I.as.001, 2-(2-chloro-6-fluoro-phenyl)-N-(4-{1-[2-(5-methyl-3-trifluoromethyl-pyrazol-1-yl)-acetyl]-piperidin-4-yl}-thiazol-2-yl)-acetamide]
- melting point: 249 to 251 °C
